Laboratory results: patent publication US11358939B2, “1,4-benzodiazepin-2-one derivatives and use thereof” (priority 2017, dated 2022)

Key:
[1] = target: peripheral benzodiazepine receptors (PBR) (Homo sapiens, UniProt P30536); experiment: Affinity to peripheral benzodiazepine receptors; assay type: binding; settings: 1×10^−6 mol/L
From the text: (§1) Data on the affinity of 3-alcoxy-1,3-dihydro-2H-benzo[e][1,4]diazepin-2-ones (Ia) to central and peripheral benzodiazepine receptors is presented in Table 3.

[2] = tested on: central benzodiazepine receptors (CBR); experiment: Affinity to central benzodiazepine receptors, competitive displacement of [3H]-flumazenil (radioreceptor method); assay type: binding; settings: 1×10^−6 mol/L
Protocol: Affinity of the compounds to central benzodiazepine receptors (CBR) was studied using radioreceptor method of competitive displacement of radioligant [^3H]-flumazenil (Ro 15-1788) from its specific binding sites at the receptor. Ligand displacement were performed in 1×10^−6 mol/L concentration.
as §1

[3] = tested on: writhes induced by intraperitoneal acetic acid; experiment: Analgesic activity, acetic acid-induced writhing test (peripheral pain model); assay type: in vivo; settings: 1 mg/kg intraperitoneally, 40 min before 0.75% acetic acid
Protocol: Assessment of analgesic activity was performed in a model of peripheral pain based on chemical pain induced by intraperitoneal administration of acetic acid, leading to involuntary contractions of abdominal muscles, termed “writhes”, accompanied by hind leg extension and spine arching. The writhes were induced by 0.75% solution of acetic acid, which was administered intraperitoneally 40 min after intraperitoneal administration of test compounds in 0.001-5 mg/kg dose range. […] Analgesic activity was assessed by the ability of the compounds to reduce the number of writhes in test group compared to control group, and indicated as percentage using the following formula: AA=(Wc−Wt/Wc)×100%,
where AA—analgesic activity in %;
Wc—average number of writhes in control group;
Wt—average number of writhes in test group
Test compounds were studied in comparison with the reference drug sodium diclofenac in 10 mg/kg dose. ED50 was calculated using Prozorovsky method.

immobility time of mice = experiment: Antidepressant activity, Porsolt forced swimming test; assay type: in vivo; settings: 1 mg/kg
Protocol: (§2) Studies of pharmacological activity of 3-arylamino-1,3-dihydro-2H-benzo[e][1,4]diazepin-2-ones, namely, their action of appetite, assessment of antihypoxic and antidepressant activity was performed in white male rats with body mass 150-180 g and male mice with body mass 18-22 g. The animals were kept on a standard laboratory diet and natural lighting. Animals of control group were given a water-Tween suspension. Test compounds were administered in a suspension with Tween-80 Reference drugs were the hormone leptin, in 0.0002 mg/kg dose, and a well-known antidepressant amitriptyline (solution for injections in 1 ml vials. Test compounds and the water-Tween suspension were administered in a dose of 0.2 ml/100 g of rat body mass.
Antidepressant activity was studied using «Porsolt forced swimming test» [15], which models stress in mice by forcing them to swim in a narrow translucent cylinder, filled by ⅓ volume with water at 23-25° C. temperature. Antidepressant action is assessed by the reduction in immobility time, when the animals have minimal amount of paddling, in seconds or percentage compared to control. The animal behavior was registered for 4 minutes after acclimatization for 2 minutes.

food consumption by rats = experiment: Action on appetite, Anorexia method (liquid food consumption); assay type: in vivo
Protocol: as §2
The action of the compounds on rat appetite was studied using «norexia» method. For 2 weeks in an experimental equipment the rats were conditioned to consume liquid food. Then a water-Tween suspension of test articles was administered intraperitoneally to conditioned animals one day before the experiment. After 40 minutes the animals were allowed access to liquid food and the amount of consumed food (in ml) of every rat was registered every 30 minutes for 3 hours. The next day after 2 hours of deprivation the rats in control group were administered a water-Tween suspension intraperitoneally, while the test group was administered the test articles. After 40 minutes the animals were allowed access to liquid food and the amount of consumed food (in ml) of every rat was registered every 30 minutes for 3 hours. Then all food consumption values for each rat were summed and compared to control values. The control group has consumed on average 7 ml of liquid food per 30 minutes. The effect was calculated in percentage compared to control.

[4] = tested on: general movement activity of animals; experiment: General movement activity, open field test; assay type: in vivo; settings: for Sedative properties (words, from general movement activity versus control): 5 mg/kg; for General movement activity (5 mg/kg): open field 3 min, sum of rearings, transitions, explored holes, 30 min before test
Protocol: General movement activity was assessed in an open field test. While the animals were in the open field (3 min), the number of rearings (vertical movement activity), transitions between squares (horizontal movement activity) and the number of explored holes (exploratory activity) were registered. The sum of these values is general movement activity.
(§3) Diazepam drug was used as the reference drug. All test compounds and the reference drug diazepam were administered in a suspension with Tween-80 in 5 mg/kg dose 30 min before the start of experiments.

[5] = tested on: number of drinking actions despite electric shock; experiment: Anxiolytic activity, conflict situation model (drinking versus electric shock); assay type: in vivo; settings: number of drinking actions despite electric shock, 30 min before test
Protocol: Anxiolytic activity was assessed in a model of conflict situation based on the conflict of two reflexes (drinking and defensive) when drinking water from a water fountain. Anxiolytic activity was assessed by the number of drinking actions despite electric shock.
as §3

[6] = dose 0,1 mg/kg intraperitoneally

Sequence of peripheral benzodiazepine receptors (PBR) (P30536 whole entry, species assumed): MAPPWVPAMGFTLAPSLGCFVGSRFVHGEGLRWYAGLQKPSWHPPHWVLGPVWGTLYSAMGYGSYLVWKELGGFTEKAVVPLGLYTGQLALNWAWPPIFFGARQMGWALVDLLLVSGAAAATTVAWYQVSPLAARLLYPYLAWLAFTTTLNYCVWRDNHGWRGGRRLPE

## O=C1Nc2ccc([N+](=O)[O-])cc2C(c2ccccc2)=NC1Nc1ccccc1[N+](=O)[O-] (centres unmarked)
other
  melting point: 225 to 227 °C

## CCCOC1N=C(c2ccccc2F)c2cc(Br)ccc2NC1=O (centres unmarked) [Compound 2]
[1]
  Affinity PBR, %: 5%
[2]
  Affinity CBR, %: 85%
[3]; compounds Ia
  Writhing inhibition, % of control in 1 mg/kg dose: 55%

## CCCCOC1N=C(c2ccccc2F)c2cc(Br)ccc2NC1=O (centres unmarked) [Compound 3]
[1]
  Affinity PBR, %: 8%
[2]
  Affinity CBR, %: 88%
[3]; compounds Ia
  Writhing inhibition, % of control in 1 mg/kg dose: 45%

## O=C1Nc2ccc(Br)cc2C(c2ccccc2F)=NC1OCCO (centres unmarked) [Compound 4]
[1]
  Affinity PBR, %: 8%
[2]
  Affinity CBR, %: 91%
[3]; compounds Ia
  Writhing inhibition, % of control in 1 mg/kg dose: 56%

## COCCOC1N=C(c2ccccc2F)c2cc(Br)ccc2NC1=O (centres unmarked) [Compound 5]
[1]
  Affinity PBR, %: 10%
[2]
  Affinity CBR, %: 90%
[3]; compounds Ia
  Writhing inhibition, % of control in 1 mg/kg dose: 52%

## O=C1Nc2ccc(Br)cc2C(c2ccccc2F)=NC1OCC1CC1 (centres unmarked) [Compound 6]
[1]
  Affinity PBR, %: 15%
[2]
  Affinity CBR, %: 89%
[3]; compounds Ia
  Writhing inhibition, % of control in 1 mg/kg dose: 55%

## COCCOC1N=C(c2ccccc2)c2cc(Cl)ccc2NC1=O (centres unmarked) [Compound 16]
[1]
  Affinity PBR, %: 15%
[2]
  Affinity CBR, %: 88%
[3]; compounds Ia
  Writhing inhibition, % of control in 1 mg/kg dose: 55%

## O=C1Nc2ccc(Cl)cc2C(c2ccccc2)=NC1OCC1CC1 (centres unmarked) [Compound 17]
[1]
  Affinity PBR, %: 14%
[2]
  Affinity CBR, %: 79%
[3]; compounds Ia
  Writhing inhibition, % of control in 1 mg/kg dose: 54%

## CCOC1N=C(c2ccccc2)c2cc(OC(F)(F)F)ccc2NC1=O (centres unmarked) [Compound 27]
[1]
  Affinity PBR, %: 16%
[2]
  Affinity CBR, %: 56%
[3]; compounds Ia
  Writhing inhibition, % of control in 1 mg/kg dose: 55%

## CCCOC1N=C(c2ccccc2)c2cc(OC(F)(F)F)ccc2NC1=O (centres unmarked) [Compound 28]
[1]
  Affinity PBR, %: 18%
[2]
  Affinity CBR, %: 60%
[3]; compounds Ia
  Writhing inhibition, % of control in 1 mg/kg dose: 60%

## CCCCOC1N=C(c2ccccc2)c2cc(OC(F)(F)F)ccc2NC1=O (centres unmarked) [Compound 29]
[1]
  Affinity PBR, %: 15%
[2]
  Affinity CBR, %: 61%
[3]; compounds Ia
  Writhing inhibition, % of control in 1 mg/kg dose: 56%

## O=C1Nc2ccc(OC(F)(F)F)cc2C(c2ccccc2)=NC1OCCO (centres unmarked) [Compound 30]
[1]
  Affinity PBR, %: 16%
[2]
  Affinity CBR, %: 65%
[3]; compounds Ia
  Writhing inhibition, % of control in 1 mg/kg dose: 50%

## CCOC1N=C(c2ccccc2Cl)c2cc([N+](=O)[O-])ccc2NC1=O (centres unmarked) [Compound 53]
[1]
  Affinity PBR, %: 15%
[2]
  Affinity CBR, %: 85%

## CCCOC1N=C(c2ccccc2Cl)c2cc([N+](=O)[O-])ccc2NC1=O (centres unmarked) [Compound 54]
[1]
  Affinity PBR, %: 16%
[2]
  Affinity CBR, %: 88%

## CCCCOC1N=C(c2ccccc2Cl)c2cc([N+](=O)[O-])ccc2NC1=O (centres unmarked) [Compound 55]
[1]
  Affinity PBR, %: 19%
[2]
  Affinity CBR, %: 87%

## COC(=O)CN1C(=O)C(Nc2cccc(F)c2)N=C(c2ccccc2)c2cc(Cl)ccc21 (centres unmarked) [Compound 159]
Immobility time of mice
  Reduction of immobility time compared to control: 32%

## O=C1Nc2ccc(OC(F)(F)F)cc2C(c2ccccc2)=NC1Nc1ccccc1Cl (centres unmarked) [Compound 194]
Food consumption by rats; Table 6 dose 0,1 mg/kg
  Reduction in appetite and food consumption compared to control: 47%
Food consumption by rats; [6]
  Amount of consumed liquid food during 30 min in ml: 3,5 ± 2,3 ml
  Food consumption, % of control: 47%
Immobility time of mice
  Reduction of immobility time compared to control: 40%

## COC(=O)CN1C(=O)C(Nc2ccccc2F)N=C(c2ccccc2Cl)c2cc([N+](=O)[O-])ccc21 (centres unmarked) [Compound 317]
[4]
  Sedative properties (words, from general movement activity versus control): don't have sedative properties
  General movement activity (5 mg/kg): 47.0 ± 3.7
[5]
  Anxiolytic activity assessed using conflict situation method (5 mg/kg): 33.4 ± 3.2
[3]; compounds Ib
  Writhing inhibition, % of control in 1 mg/kg dose: 63%

## COC(=O)CN1C(=O)C(Nc2cccc(F)c2)N=C(c2ccccc2Cl)c2cc([N+](=O)[O-])ccc21 (centres unmarked) [Compound 318]
[4]
  General movement activity (5 mg/kg): 28.5 ± 2.3
[5]
  Anxiolytic activity assessed using conflict situation method (5 mg/kg): 19.2 ± 3.4
[3]; compounds Ib
  Writhing inhibition, % of control in 1 mg/kg dose: 65%

## COC(=O)CN1C(=O)C(Nc2ccc(F)cc2)N=C(c2ccccc2Cl)c2cc([N+](=O)[O-])ccc21 (centres unmarked) [Compound 319]
[4]
  General movement activity (5 mg/kg): 27.2 ± 2.1
[5]
  Anxiolytic activity assessed using conflict situation method (5 mg/kg): 18.1 ± 2.2
[3]; compounds Ib
  Writhing inhibition, % of control in 1 mg/kg dose: 61%

## COC(=O)CN1C(=O)C(Nc2ccccc2Br)N=C(c2ccccc2Cl)c2cc([N+](=O)[O-])ccc21 (centres unmarked) [Compound 326]
[4]
  General movement activity (5 mg/kg): 22.0 ± 2.0
[5]
  Anxiolytic activity assessed using conflict situation method (5 mg/kg): 45.1 ± 2.6
[3]; compounds Ib
  Writhing inhibition, % of control in 1 mg/kg dose: 62%

## COC(=O)CN1C(=O)C(Nc2cccc(Br)c2)N=C(c2ccccc2Cl)c2cc([N+](=O)[O-])ccc21 (centres unmarked) [Compound 327]
[4]
  Sedative properties (words, from general movement activity versus control): don't have sedative properties
  General movement activity (5 mg/kg): 45.0 ± 3.7
[5]
  Anxiolytic activity assessed using conflict situation method (5 mg/kg): 43.4 ± 3.2
[3]; compounds Ib
  Writhing inhibition, % of control in 1 mg/kg dose: 70%

## COC(=O)CN1C(=O)C(Nc2ccc(Br)cc2)N=C(c2ccccc2Cl)c2cc([N+](=O)[O-])ccc21 (centres unmarked) [Compound 328]
[4]
  General movement activity (5 mg/kg): 24.5 ± 2.3
[5]
  Anxiolytic activity assessed using conflict situation method (5 mg/kg): 23.2 ± 3.4
[3]; compounds Ib
  Writhing inhibition, % of control in 1 mg/kg dose: 69%

## COC(=O)CN1C(=O)C(Nc2ccccc2Cl)N=C(c2ccccc2F)c2cc([N+](=O)[O-])ccc21 (centres unmarked) [Compound 362]
[4]
  General movement activity (5 mg/kg): 29.2 ± 2.3
[5]
  Anxiolytic activity assessed using conflict situation method (5 mg/kg): 35.1 ± 3.5
[3]; compounds Ib
  Writhing inhibition, % of control in 1 mg/kg dose: 65%

## COC(=O)CN1C(=O)C(Nc2cccc(Cl)c2)N=C(c2ccccc2F)c2cc([N+](=O)[O-])ccc21 (centres unmarked) [Compound 363]
[4]
  Sedative properties (words, from general movement activity versus control): don't have sedative properties
  General movement activity (5 mg/kg): 41.0 ± 3.9
[5]
  Anxiolytic activity assessed using conflict situation method (5 mg/kg): 46.4 ± 4.2
[3]; compounds Ib
  Writhing inhibition, % of control in 1 mg/kg dose: 70%

## COC(=O)CN1C(=O)C(Nc2ccc(Cl)cc2)N=C(c2ccccc2F)c2cc([N+](=O)[O-])ccc21 (centres unmarked) [Compound 364]
[4]
  General movement activity (5 mg/kg): 34.5 ± 3.3
[5]
  Anxiolytic activity assessed using conflict situation method (5 mg/kg): 26.2 ± 3.4
[3]; compounds Ib
  Writhing inhibition, % of control in 1 mg/kg dose: 64%

## COC(=O)CN1C(=O)C(Nc2ccccc2C(F)(F)F)N=C(c2ccccc2F)c2cc([N+](=O)[O-])ccc21 (centres unmarked) [Compound 398]
[4]
  General movement activity (5 mg/kg): 28.2 ± 3.3
[5]
  Anxiolytic activity assessed using conflict situation method (5 mg/kg): 33.1 ± 3.2
[3]; compounds Ib
  Writhing inhibition, % of control in 1 mg/kg dose: 68%

## COC(=O)CN1C(=O)C(Nc2cccc(C(F)(F)F)c2)N=C(c2ccccc2F)c2cc([N+](=O)[O-])ccc21 (centres unmarked) [Compound 399]
[4]
  Sedative properties (words, from general movement activity versus control): don't have sedative properties
  General movement activity (5 mg/kg): 41.8 ± 4.3
[5]
  Anxiolytic activity assessed using conflict situation method (5 mg/kg): 44.4 ± 4.3
[3]; compounds Ib
  Writhing inhibition, % of control in 1 mg/kg dose: 70%

## COC(=O)CN1C(=O)C(Nc2ccc(C(F)(F)F)cc2)N=C(c2ccccc2F)c2cc([N+](=O)[O-])ccc21 (centres unmarked) [Compound 400]
[4]
  General movement activity (5 mg/kg): 36.5 ± 3.3
[5]
  Anxiolytic activity assessed using conflict situation method (5 mg/kg): 32.2 ± 3.3
[3]; compounds Ib
  Writhing inhibition, % of control in 1 mg/kg dose: 60%

## CN(C)CCC=C1c2ccccc2CCc2ccccc21 [amitriptyline, reference compound]
Immobility time of mice
  Reduction of immobility time compared to control: 40%
